According to US9394286B2, “Rock inhibitors” (Amakem NV, priority 2012, dated 2016):
Where a name gives a salt, the structure may show the parent alone.

Experiments:
[1] = biological target: ROCK2 (Homo sapiens, UniProt O75116); experiment: Kinase inhibition (ROCKI & ROCKII), radiometric 33P-ATP assay; assay type: biochemical; details: ROCK 1 nM, 120 min at room temperature
Protocol: On-target activity against ROCK was measured in a biochemical assay, using the following reagents: Base Reaction buffer; 20 mM Hepes (pH 7.5), 10 mM MgCl2, 1 mM EGTA, 0.02% Brij35, 0.02 mg/ml BSA, 0.1 mM Na3VO4, 2 mM DTT, 1% DMSO. Required cofactors are added individually to each kinase reaction. The reaction procedure first involved the preparation of a peptide substrate in a freshly prepared reaction buffer. Required cofactors were then added to the substrate solution. ROCK (1 nM final concentration) was then delivered to the substrate solution. After gentle mix, DMSO solutions of the test compounds were added to the enzyme. Substrate mix ^33P-ATP (specific activity 0.01 μCi/μl final) was then delivered into the reaction mixture to initiate the reaction. The kinase reaction was incubated for 120 min. at room temperature. Reactions were then spotted onto P81 ion exchange paper (Whatman #3698-915). Filters were washed extensively in 0.1% Phosphoric acid. A radiometric count was then performed and IC50 values were subsequently determined.
The IC50 values obtained (in accordance with the protocol set forth above) are represented as follows: “+++” means IC50 below 0.1 μM, “++” means IC50 between 0.1 μM and 1 μM; “+” means IC50 between 1 and 10 μM and “ND” means “not determined yet”.

[2] = tested on: MLC-T18/S19 phosphorylation; experiment: Myosin light chain phosphorylation assay (ELISA) in A7r5 cells; assay type: cell-based, Rat; details: for EC50: Rattus norvegicus, MLC-T18/S19 phosphorylation, A7r5 cells, serum-free medium
Protocol: Rat smooth muscle cell line A7r5 is used. The endogenous expression of ROCK results in a constitutive phosphorylation of the regulatory myosin light chain at T18/S19. A7r5 cells were plated in DMEM supplemented with 10% FCS in multiwall cell culture plates. After serum starvation overnight, cells were incubated with compounds in serum-free medium.
Quantification of MLC-T18/S19 phosphorylation is assesses in 96 well-plates via ELISA using a phspho-MLC-T18/S19 specific antibody and a secondary detection antibody. Relative MLC phosphorylation is measured with respect to untreated cells (Positive control, 1.0) and cells treated with 100 μM Y-27632 (Negative control, 0.0). EC50 values were determined using GraphPad Prism 5.01 software using a nonlinear regression curve fit with variable hill slope.
The […] values obtained (in accordance with the protocols set forth above) are represented as follows: “+++” means EC50 below 0.3 μM, “++” means EC50 between 0.3 μM and 1 μM; “+” means EC50 between 1 and 10 μM and “−” means EC50>10 μM.

[3] = Stability assay in rabbit aqueous humor; assay type: in vitro ADME; details: 1 μM compound in rabbit aqueous humor, LC-MS/MS; read-out: t½ AH
Protocol: Compounds are incubated at a concentration of 1 μM in rabbit aqueous humor (AH). Samples are taken at fixed time points and the remnant of compound is determined by LC-MS/MS after protein precipitation. Half life is expressed in minutes.

[4] = Stability assay in human plasma; assay type: in vitro ADME; details: 1 μM compound, LC-MS/MS, read-out: t½ human plasma
Protocol: (§1) Compounds are incubated at a concentration of 1 μM in human or animal (rat, mice or rabbit) […] or whole blood. Samples are taken at fixed time points and the remnant of compound is determined by LC-MS/MS after protein precipitation. Half life is expressed in minutes.

[5] = Stability assay in human whole blood; assay type: in vitro ADME; details: 1 μM compound, LC-MS/MS, read-out: t½ human whole blood
Protocol: as §1

ROCK2, sequence (O75116 whole entry, species assumed): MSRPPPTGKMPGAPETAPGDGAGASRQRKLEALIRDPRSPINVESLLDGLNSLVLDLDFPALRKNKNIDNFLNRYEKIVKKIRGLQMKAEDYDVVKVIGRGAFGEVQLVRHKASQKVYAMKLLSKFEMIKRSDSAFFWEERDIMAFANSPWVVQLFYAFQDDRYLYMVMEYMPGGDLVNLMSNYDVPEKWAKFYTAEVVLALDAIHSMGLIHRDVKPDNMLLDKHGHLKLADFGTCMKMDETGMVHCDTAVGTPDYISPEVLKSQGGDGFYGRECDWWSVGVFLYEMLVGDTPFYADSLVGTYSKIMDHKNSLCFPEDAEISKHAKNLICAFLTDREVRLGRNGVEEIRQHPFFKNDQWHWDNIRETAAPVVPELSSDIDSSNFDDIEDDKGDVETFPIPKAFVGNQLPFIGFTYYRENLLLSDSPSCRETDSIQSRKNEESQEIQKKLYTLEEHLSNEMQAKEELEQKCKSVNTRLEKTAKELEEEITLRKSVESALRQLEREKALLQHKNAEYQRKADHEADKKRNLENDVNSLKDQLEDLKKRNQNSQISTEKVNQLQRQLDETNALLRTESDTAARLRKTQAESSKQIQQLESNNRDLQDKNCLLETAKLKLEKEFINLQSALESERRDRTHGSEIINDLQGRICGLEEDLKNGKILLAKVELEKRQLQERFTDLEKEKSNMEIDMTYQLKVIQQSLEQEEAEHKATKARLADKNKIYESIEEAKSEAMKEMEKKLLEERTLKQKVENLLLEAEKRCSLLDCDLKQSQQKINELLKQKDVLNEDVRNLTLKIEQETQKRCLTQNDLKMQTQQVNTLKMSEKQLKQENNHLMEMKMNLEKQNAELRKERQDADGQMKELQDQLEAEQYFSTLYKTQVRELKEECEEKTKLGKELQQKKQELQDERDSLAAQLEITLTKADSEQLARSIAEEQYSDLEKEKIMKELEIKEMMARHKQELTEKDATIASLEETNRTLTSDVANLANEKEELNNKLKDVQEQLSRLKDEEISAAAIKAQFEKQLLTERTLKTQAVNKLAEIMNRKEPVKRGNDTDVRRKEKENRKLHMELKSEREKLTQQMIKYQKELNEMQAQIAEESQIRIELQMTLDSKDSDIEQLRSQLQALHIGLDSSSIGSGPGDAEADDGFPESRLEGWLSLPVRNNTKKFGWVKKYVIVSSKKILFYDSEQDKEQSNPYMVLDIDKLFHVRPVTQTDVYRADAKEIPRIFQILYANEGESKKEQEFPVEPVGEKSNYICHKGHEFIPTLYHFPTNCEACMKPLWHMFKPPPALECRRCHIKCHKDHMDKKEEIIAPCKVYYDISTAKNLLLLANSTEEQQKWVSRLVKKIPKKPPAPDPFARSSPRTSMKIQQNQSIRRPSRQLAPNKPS

| Structure (SMILES) | IC50 [1] [nM] | EC50 [2] [nM] | half-life at 1 μM [3] [min] | half-life at 1 μM [4] [min] | half-life at 1 μM [5] [min] | difference in EC50 values between compound 32 and its metabolite Met1 ([2]; MLC phosphorylation assay, FIG. 1, Met1 versus parent compound 32) [fold] |
| --- | --- | --- | --- | --- | --- | --- |
| COC(=O)c1cccc(C(=O)Nc2cccc(CN3CCC(Nc4cccc5cnccc45)C3)c2)c1 (stereo not shown) [Compound 1, Methyl 3-((3-((3-(isoquinolin-5-ylamino)pyrrolidin-1-yl)methyl)phenyl)carbamoyl)benzoate] | < 100 | < 300 | > 120 | – | – | – |
| COC(=O)c1cccc(C(=O)Nc2cc(CN3CCC(Nc4cccc5cnccc45)C3)ccc2C)c1 (stereo not shown) [Compound 7] | – | – | > 120 | 31 | – | – |
| COC(=O)c1ccc(C(=O)Nc2cccc(CNC3CCC(Nc4cccc5cnccc45)CC3)c2)cc1 (stereo not shown) [Compound 17] | < 100 | – | – | – | – | – |
| COC(=O)c1ccc(C(=O)Nc2cccc(CN3CCC(Nc4cccc5cnccc45)CC3)c2)cc1 [Compound 19] | < 100 | – | – | – | – | – |
| COCCOC(=O)c1cccc(C(=O)Nc2cccc(CN3CCC(Nc4cccc5cnccc45)C3)c2)c1 (stereo not shown) [Compound 22] | < 100 | < 300 | > 120 | < 20 | < 20 | – |
| CCCOC(=O)c1cccc(C(=O)Nc2cccc(CNC3CCC(Nc4cccc5cnccc45)CC3)c2)c1 (stereo not shown) [Compound 27] | < 100 | – | > 120 | < 20 | – | – |
| CCCOC(=O)c1ccc(C(=O)Nc2cccc(CNC3CCC(Nc4cccc5cnccc45)CC3)c2)cc1 (stereo not shown) [Compound 30] | < 100 | – | – | – | – | – |
| COCCOC(=O)c1ccc(C(=O)Nc2cccc(CNC3CCC(Nc4cccc5cnccc45)CC3)c2)cc1 (stereo not shown) [Compound 31] | < 100 | – | – | – | – | – |
| O=C(Nc1cccc(CNC2CCC(Nc3cccc4cnccc34)CC2)c1)c1ccc(C(=O)OCC2CCCO2)cc1 (stereo not shown) [Compound 32] | < 100 | 300 to 1000 | – | 20 | – | – |
| CCCOC(=O)c1cccc(C(=O)Nc2cccc(CN3CCC(Nc4cccc5cnccc45)CC3)c2)c1 [Compound 33] | < 100 | – | > 120 | < 20 | – | – |
| CCCOC(=O)c1ccc(C(=O)Nc2cccc(CN3CCC(Nc4cccc5cnccc45)CC3)c2)cc1 [Compound 36] | < 100 | – | – | – | – | – |
| C[C@@H](N)[C@H]1CC[C@H](C(=O)Nc2ccncc2)CC1 [Compound Y-27632, Y-27632, reference compound] | – | 300 to 1000 | – | – | – | – |
| O=S(=O)(c1cccc2cnccc12)N1CCCNCC1 [Fasudil, reference compound] | – | 1000 to 10000 | – | – | – | – |
| O=C(O)c1ccc(C(=O)Nc2cccc(CNC3CCC(Nc4cccc5cnccc45)CC3)c2)cc1 (stereo not shown) [Met1] | – | – | – | – | – | > 20 |

Continued, values first:

| IC50 [1] [nM] | EC50 [2] [nM] | half-life at 1 μM [3] [min] | half-life at 1 μM [4] [min] | half-life at 1 μM [5] [min] | difference in EC50 values between compound 32 and its metabolite Met1 ([2]; MLC phosphorylation assay, FIG. 1, Met1 versus parent compound 32) [fold] | Structure (SMILES) |
| --- | --- | --- | --- | --- | --- | --- |
| < 100 | < 300 | – | – | – | – | COC(=O)c1ccc(C(=O)Nc2cccc(CN3CCC(Nc4cccc5cnccc45)C3)c2)cc1 (stereo not shown) [Compound 2, Methyl 4-((3-((3-(isoquinolin-5-ylamino)pyrrolidin-1-yl)methyl)phenyl)carbamoyl)benzoate] |
| – | – | > 120 | 33 | – | – | COC(=O)c1cccc(C(=O)Nc2cc(CN3CCCC(Nc4ccc5[nH]ncc5c4)C3)ccc2C)c1 (stereo not shown) [Compound 3, Methyl 3-((5-((3-((1H-indazol-5-yl)amino)piperidin-1-yl)methyl)-2-methylphenyl)carbamoyl)benzoate dihydrochloride] |
| – | – | > 120 | – | – | – | COC(=O)c1ccc(C(=O)Nc2cc(CN3CCCC(Nc4ccc5[nH]ncc5c4)C3)ccc2C)cc1 (stereo not shown) [Compound 15] |
| < 100 | < 300 | – | < 20 | – | – | COC(=O)c1cccc(C(=O)Nc2cccc(CNC3CCC(Nc4cccc5cnccc45)CC3)c2)c1 (stereo not shown) [Compound 16] |
| < 100 | – | – | – | – | – | COC(=O)c1cccc(C(=O)Nc2cccc(CN3CCC(Nc4cccc5cnccc45)CC3)c2)c1 [Compound 18] |
| < 100 | < 300 | 120 | < 20 | < 20 | – | CCCOC(=O)c1cccc(C(=O)Nc2cccc(CN3CCC(Nc4cccc5cnccc45)C3)c2)c1 (stereo not shown) [Compound 21] |
| < 100 | – | 77 | < 20 | < 20 | – | O=C(Nc1cccc(CN2CCC(Nc3cccc4cnccc34)C2)c1)c1cccc(C(=O)OCC2CCCO2)c1 (stereo not shown) [Compound 23] |
| < 100 | < 300 | – | – | – | – | CCCOC(=O)c1ccc(C(=O)Nc2cccc(CN3CCC(Nc4cccc5cnccc45)C3)c2)cc1 (stereo not shown) [Compound 24] |
| < 100 | – | – | – | – | – | COCCOC(=O)c1ccc(C(=O)Nc2cccc(CN3CCC(Nc4cccc5cnccc45)C3)c2)cc1 (stereo not shown) [Compound 25] |
| < 100 | – | – | – | – | – | O=C(Nc1cccc(CN2CCC(Nc3cccc4cnccc34)C2)c1)c1ccc(C(=O)OCC2CCCO2)cc1 (stereo not shown) [Compound 26] |
| < 100 | – | > 120 | < 20 | – | – | COCCOC(=O)c1cccc(C(=O)Nc2cccc(CNC3CCC(Nc4cccc5cnccc45)CC3)c2)c1 (stereo not shown) [Compound 28] |
| < 100 | – | > 120 | < 20 | – | – | O=C(Nc1cccc(CNC2CCC(Nc3cccc4cnccc34)CC2)c1)c1cccc(C(=O)OCC2CCCO2)c1 (stereo not shown) [Compound 29] |
| < 100 | 300 to 1000 | > 120 | < 20 | – | – | COCCOC(=O)c1cccc(C(=O)Nc2cccc(CN3CCC(Nc4cccc5cnccc45)CC3)c2)c1 [Compound 34] |
| < 100 | – | > 120 | < 20 | – | – | O=C(Nc1cccc(CN2CCC(Nc3cccc4cnccc34)CC2)c1)c1cccc(C(=O)OCC2CCCO2)c1 (stereo not shown) [Compound 35] |
| < 100 | – | – | – | – | – | COCCOC(=O)c1ccc(C(=O)Nc2cccc(CN3CCC(Nc4cccc5cnccc45)CC3)c2)cc1 [Compound 37] |
| < 100 | – | – | – | – | – | O=C(Nc1cccc(CN2CCC(Nc3cccc4cnccc34)CC2)c1)c1ccc(C(=O)OCC2CCCO2)cc1 (stereo not shown) [Compound 38] |
